Data published in patent US11505548B2, “Heterocyclic compounds and their use for treatment of helminthic infections and diseases” (Celgene Corporation, priority 2019, dated 2022).

Tested on: Onchocerca gutturosa Adult Male Worms
Test: Onchocerciasis in vitro screening model, worm motility score
Assay type: cell-based
Details: Onchocerca gutturosa; Table 1 O. gutturosa; levels A/B/C; motility or MTT readout not specified; read-out: O. gutturosa activity level (IC50 or MED)

Row | SMILES | IC50 [nM]
1 | Cc1cccnc1Nc1nc(-c2ccc(OC3CC4(C3)CN(C)C4)cn2)ns1 [Compound 88, 3-(5-(2-methyl-2-azaspiro[3.3]heptan-6-yloxy)pyridin-2-yl)-N-(3-methylpyridin-2-yl)-1,2,4-thiadiazol-5-amine] | 500 to 5000
2 | CC(C)c1cccnc1Nc1nc(-c2ccc(O[C@@H]3CCN(C4CC4)C[C@@H]3F)cn2)ns1 [Compound 89, 3-(5-((3S,4R)-1-cyclopropyl-3-fluoro-piperidin-4-yloxy)pyridin-2-yl)-N-(3-isopropylpyridin-2-yl)-1,2,4-thiadiazol-5-amine] | < 200
3 | CC(C)c1cccnc1Nc1nc(-c2ccc(O[C@@H]3CCN(C4CC4)C[C@H]3F)cn2)ns1 [Compound 90, 3-(5-((3R,4R)-1-cyclopropyl-3-fluoro-piperidin-4-yloxy)pyridin-2-yl)-N-(3-isopropylpyridin-2-yl)-1,2,4-thiadiazol-5-amine] | < 200
4 | Cc1cccnc1Nc1nc(-c2ccc(O[C@@H]3CCN(C4CC4)C[C@H]3F)cn2)ns1 [Compound 91, 3-(5-((3R,4R)-1-cyclopropyl-3-fluoro-piperidin-4-yloxy)pyridin-2-yl)-N-(3-methylpyridin-2-yl)-1,2,4-thiadiazol-5-amine] | < 200
5 | Cc1cccnc1Nc1nc(-c2ccc(OC3CCN(C4CC4)C[C@@H]3F)cn2)ns1 (stereo partly drawn) [Compound 92, 3-(5-((3S)-1-cyclopropyl-3-fluoro-piperidin-4-yloxy)pyridin-2-yl)-N-(3-methylpyridin-2-yl)-1,2,4-thiadiazol-5-amine] | < 200
6 | Cc1cccnc1Nc1nc(-c2ncc(OC3CC3)cc2C(F)(F)F)ns1 [Compound 93, 3-(5-cyclo-propoxy-3-(trifluoromethyl)pyridin-2-yl)-N-(3-methyl-pyridin-2-yl)-1,2,4-thiadiazol-5-amine] | 500 to 5000
7 | CC(C)Oc1cccnc1-c1nsc(Nc2cc(N3CCCC3)ccn2)n1 [Compound 94, 3-(3-isopropoxy-pyridin-2-yl)-N-(4-(pyrrolidin-1-yl)pyridin-2-yl)-1,2,4-thiadiazol-5-amine] | < 200
8 | CC(C)c1cnc(Nc2nc(-c3ccc(OC4CC4)cn3)ns2)cc1C(F)(F)F [Compound 95, 3-(5-cyclopropoxy-pyridin-2-yl)-N-(5-isopropyl-4-(trifluoromethyl)pyridin-2-yl)-1,2,4-thiadiazol-5-amine] | < 200
9 | CC(C)c1cnc(Nc2nc(-c3cc(OC4CC4)ccn3)ns2)cc1C(F)(F)F [Compound 96, 3-(4-cycloprop-oxypyridin-2-yl)-N-(5-isopropyl-4-(trifluoromethyl)pyridin-2-yl)-1,2,4-thiadiazol-5-amine] | < 200
10 | CC(C)c1cnc(Nc2nc(-c3ncccc3OC3CC3)ns2)cc1C(F)(F)F [Compound 97, 3-(3-cycloprop-oxypyridin-2-yl)-N-(5-isopropyl-4-(trifluoromethyl)pyridin-2-yl)-1,2,4-thiadiazol-5-amine] | < 200
11 | Cc1cccnc1N(C)c1nc(-c2ccc(OC(C)C)cn2)ns1 [Compound 98, 3-(5-isopropoxy-pyridin-2-yl)-N-methyl-N-(3-methylpyridin-2-yl)-1,2,4-thiadiazol-5-amine] | 200 to 500
12 | FC(F)(F)c1ccnc(-c2nsc(Nc3cc(N4CCCC4)ccn3)n2)c1 [Compound 99, N-(4-(pyrrolidin-1-yl)pyridin-2-yl)-3-(4-(trifluoromethyl)pyridin-2-yl)-1,2,4-thiadiazol-5-amine] | 500 to 5000
13 | Cc1cccnc1Nc1nc(-c2ccc(S(=O)(=O)C3CCN(C)CC3)cn2)ns1 [Compound 100, 3-(5-(1-methylpiperidin-4-ylsulfonyl)pyridin-2-yl)-N-(3-methylpyridin-2-yl)-1,2,4-thiadiazol-5-amine] | 200 to 500
14 | CN(C)c1cccnc1Nc1nc(-c2ccc(OCC(F)(F)F)cn2)ns1 [Compound 101, N3,N3-dimethyl-N2-(3-(5-(2,2,2-trifluoroethoxy)pyridin-2-yl)-1,2,4-thiadiazol-5-yl)pyridine-2,3-diamine] | 200 to 500
15 | Cc1cccnc1Nc1nc(-c2cc(C(F)(F)F)c(OC3CC3)cn2)ns1 [Compound 102, 3-(5-cyclo-propoxy-4-(trifluoromethyl)pyridin-2-yl)-N-(3-methyl-pyridin-2-yl)-1,2,4-thiadiazol-5-amine] | 500 to 5000
16 | Cc1cccnc1Nc1nc(-c2ccc(OC3CC3)cn2)n(C)n1 [Compound 103, N-(5-(5-cyclopropoxy-pyridin-2-yl)-1-methyl-1H-1,2,4-triazol-3-yl)-3-methyl-pyridin-2-amine] | < 200
17 | Cc1cccnc1Nc1nnc(-c2cc(C(C)C)ccn2)o1 [Compound 104, 5-(4-isopropyl-pyridin-2-yl)-N-(3-methyl-pyridin-2-yl)-1,3,4-oxadiazol-2-amine] | < 200
18 | COc1cccnc1Nc1nc(-c2ccc(OCC(F)(F)F)cn2)ns1 [Compound 105, N-(3-methoxy-pyridin-2-yl)-3-(5-(2,2,2-trifluoroethoxy)pyridin-2-yl)-1,2,4-thiadiazol-5-amine] | < 200
19 | O=C(NCC1CC1)c1ccc(Nc2nc(-c3ccc(OC4CC4)cn3)ns2)nc1 [Compound 106, 6-(3-(5-cyclo-propoxypyridin-2-yl)-1,2,4-thiadiazol-5-ylamino)-N-(cyclopropyl-methyl) nicotinamide] | 500 to 5000

Row | SMILES | IC50 [nM]
20 | O=C(NC1CC(F)(F)C1)c1ccc(Nc2nc(-c3ccc(OC4CC4)cn3)ns2)nc1 [Compound 107, 6-(3-(5-cyclo-propoxypyridin-2-yl)-1,2,4-thiadiazol-5-ylamino)-N-(3,3-difluoro-cyclobutyl) nicotinamide] | 500 to 5000
21 | CNc1cccnc1Nc1nc(-c2ccc(OC(C)C)cn2)ns1 [Compound 108, N2-(3-(5-isopropoxypyridin-2-yl)-1,2,4-thiadiazol-5-yl)-N3-methyl-pyridine-2,3-diamine] | 200 to 500
22 | CC(C)c1cccnc1Nc1nc(-c2cc(C(F)(F)F)c(OC3CC3)cn2)ns1 [Compound 109, 3-(5-cyclopropoxy-4-(trifluoromethyl)pyridin-2-yl)-N-(3-isopropyl-pyridin-2-yl)-1,2,4-thiadiazol-5-amine] | < 200
23 | Cc1cccnc1Nc1nc(-c2cc(C(F)(F)F)c(OCC3CC3)cn2)ns1 [Compound 110, 3-(5-(cyclo-propylmethoxy)-4-(trifluoromethyl)pyridin-2-yl)-N-(3-methyl-pyridin-2-yl)-1,2,4-thiadiazol-5-amine] | < 200
24 | CN(C)c1cccnc1Nc1nc(-c2cc(C(F)(F)F)c(OC3CC3)cn2)ns1 [Compound 111, N2-(3-(5-cyclo-propoxy-4-(trifluoromethyl)pyridin-2-yl)-1,2,4-thiadiazol-5-yl)-N3,N3-dimethyl-pyridine-2,3-diamine] | < 200
25 | CC(=O)N1CCN(c2ccc(Nc3nc(-c4ccc(OC5CC5)cn4)ns3)nc2)CC1 [Compound 112, 1-(4-(6-(3-(5-cyclopropoxy-pyridin-2-yl)-1,2,4-thiadiazol-5-ylamino)pyridin-3-yl)piperazin-1-yl) ethanone] | 200 to 500
26 | O=C(CC(F)(F)F)N1CCN(c2ccc(Nc3nc(-c4ccc(OC5CC5)cn4)ns3)nc2)CC1 [Compound 113, 1-(4-(6-(3-(5-cycloprop-oxypyridin-2-yl)-1,2,4-thiadiazol-5-ylamino)pyridin-3-yl)piperazin-1-yl)-3,3,3-trifluoro-propan-1-one] | 500 to 5000
27 | Cc1cccnc1Nc1nc(-c2ccc3c(n2)CN(CC2CC2)C3)ns1 [Compound 114, 3-(6-(cyclo-propylmethyl)-6,7-dihydro-5H-pyrrolo[3,4-b]pyridin-2-yl)-N-(3-methylpyridin-2-yl)-1,2,4-thiadiazol-5-amine] | 500 to 5000
28 | CC(C)Oc1ccc(-c2nsc(Nc3ncccc3C(C)C)n2)nc1 [Compound 115, 3-(5-isopropoxy-pyridin-2-yl)-N-(3-isopropyl-pyridin-2-yl)-1,2,4-thiadiazol-5-amine] | < 200
29 | CC(C)Oc1ccc(-c2nsc(Nc3ncccc3N3CCCC3)n2)nc1 [Compound 116, 3-(5-isopropoxy-pyridin-2-yl)-N-(3-(pyrrolidin-1-yl)pyridin-2-yl)-1,2,4-thiadiazol-5-amine] | < 200
30 | CN(C)c1cccnc1Nc1nc(-c2ncccc2OC2CC2)ns1 [Compound 117, N2-(3-(3-cycloprop-oxypyridin-2-yl)-1,2,4-thiadiazol-5-yl)-N3,N3-dimethyl-pyridine-2,3-diamine] | 200 to 500
31 | CN(C)c1cccnc1Nc1nc(-c2ccc(OCC3CC3)cn2)ns1 [Compound 118, N2-(3-(5-(cyclopropyl-methoxy)pyridin-2-yl)-1,2,4-thiadiazol-5-yl)-N3,N3-dimethyl-pyridine-2,3-diamine] | < 200
32 | CC(C)Oc1ccc(-c2nsc(Nc3cc(C(F)(F)F)c(C(C)C)cn3)n2)nc1 [Compound 119, 3-(5-isopropoxy-pyridin-2-yl)-N-(5-isopropyl-4-(trifluoromethyl)pyridin-2-yl)-1,2,4-thiadiazol-5-amine] | < 200
33 | CN(C)c1cccnc1Nc1nc(-c2ccc(OC(F)F)cn2)ns1 [Compound 120, N2-(3-(5-(difluoromethoxy)pyridin-2-yl)-1,2,4-thiadiazol-5-yl)-N3,N3-dimethyl-pyridine-2,3-diamine] | 500 to 5000
34 | CN(C)c1cccnc1Nc1nc(-c2ccc(F)cn2)ns1 [Compound 121, N2-(3-(5-fluoro-pyridin-2-yl)-1,2,4-thiadiazol-5-yl)-N3,N3-dimethylpyridine-2,3-diamine] | < 200
35 | CNc1cccnc1Nc1nc(-c2ccc(OC3CCN(C4CC4)CC3(F)F)cn2)ns1 (stereo not shown) [Compound 122, N2-(3-(5-(1-cyclopropyl-3,3-difluoropiperidin-4-yloxy)pyridin-2-yl)-1,2,4-thiadiazol-5-yl)-N3-methyl-pyridine-2,3-diamine] | 200 to 500
36 | CN(C)c1cccnc1Nc1nc(-c2ccc(OC3CCN(C4CC4)CC3(F)F)cn2)ns1 (stereo not shown) [Compound 123, N2-(3-(5-(1-cyclopropyl-3,3-difluoro-piperidin-4-yloxy)pyridin-2-yl)-1,2,4-thiadiazol-5-yl)-N3,N3-dimethyl-pyridine-2,3-diamine] | < 200
37 | Cc1cccnc1Nc1nc(-c2cnc(OC(C)C)cn2)ns1 [Compound 124, 3-(5-isopropoxy-pyrazin-2-yl)-N-(3-methyl-pyridin-2-yl)-1,2,4-thiadiazol-5-amine] | 200 to 500
